Results on 9 compounds are retold here after patent publication US12624044B2, “SMARCA degraders and uses thereof” (Kymera Therapeutics, Inc., priority 2019, dated 2026).

The target of one experiment is SMARCA2 (Homo sapiens, UniProt P51531). In words: MSD SMARCA2 degradation in A549 cell line. It is filed as cell-based. Conditions: 24 h; for Dmax: A549, A549 cells; for DC50: A549 cells, read-out: SMARCA2 MSD A549 degradation 24 h: Average external-Abs DC50. The procedure, abridged:
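A549 cells treated 24 h with compound at final 0.152-1000 nM (3-fold series, DMSO control). Lysates analyzed by MSD immunoassay using anti-SMARCA2/BRM detection and SULFO-TAG secondary antibodies; maximal degradation (Dmax %) reported as letter bins.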

The target of a further experiment is T1, SMARCA4 (Homo sapiens, UniProt P51532).
T1 construct: SMARCA2 and SMARCA4 protein degradation in MV4-11 cells; endogenous in cells; host or cells: MV4-11
T1 sequence (P51532 whole entry): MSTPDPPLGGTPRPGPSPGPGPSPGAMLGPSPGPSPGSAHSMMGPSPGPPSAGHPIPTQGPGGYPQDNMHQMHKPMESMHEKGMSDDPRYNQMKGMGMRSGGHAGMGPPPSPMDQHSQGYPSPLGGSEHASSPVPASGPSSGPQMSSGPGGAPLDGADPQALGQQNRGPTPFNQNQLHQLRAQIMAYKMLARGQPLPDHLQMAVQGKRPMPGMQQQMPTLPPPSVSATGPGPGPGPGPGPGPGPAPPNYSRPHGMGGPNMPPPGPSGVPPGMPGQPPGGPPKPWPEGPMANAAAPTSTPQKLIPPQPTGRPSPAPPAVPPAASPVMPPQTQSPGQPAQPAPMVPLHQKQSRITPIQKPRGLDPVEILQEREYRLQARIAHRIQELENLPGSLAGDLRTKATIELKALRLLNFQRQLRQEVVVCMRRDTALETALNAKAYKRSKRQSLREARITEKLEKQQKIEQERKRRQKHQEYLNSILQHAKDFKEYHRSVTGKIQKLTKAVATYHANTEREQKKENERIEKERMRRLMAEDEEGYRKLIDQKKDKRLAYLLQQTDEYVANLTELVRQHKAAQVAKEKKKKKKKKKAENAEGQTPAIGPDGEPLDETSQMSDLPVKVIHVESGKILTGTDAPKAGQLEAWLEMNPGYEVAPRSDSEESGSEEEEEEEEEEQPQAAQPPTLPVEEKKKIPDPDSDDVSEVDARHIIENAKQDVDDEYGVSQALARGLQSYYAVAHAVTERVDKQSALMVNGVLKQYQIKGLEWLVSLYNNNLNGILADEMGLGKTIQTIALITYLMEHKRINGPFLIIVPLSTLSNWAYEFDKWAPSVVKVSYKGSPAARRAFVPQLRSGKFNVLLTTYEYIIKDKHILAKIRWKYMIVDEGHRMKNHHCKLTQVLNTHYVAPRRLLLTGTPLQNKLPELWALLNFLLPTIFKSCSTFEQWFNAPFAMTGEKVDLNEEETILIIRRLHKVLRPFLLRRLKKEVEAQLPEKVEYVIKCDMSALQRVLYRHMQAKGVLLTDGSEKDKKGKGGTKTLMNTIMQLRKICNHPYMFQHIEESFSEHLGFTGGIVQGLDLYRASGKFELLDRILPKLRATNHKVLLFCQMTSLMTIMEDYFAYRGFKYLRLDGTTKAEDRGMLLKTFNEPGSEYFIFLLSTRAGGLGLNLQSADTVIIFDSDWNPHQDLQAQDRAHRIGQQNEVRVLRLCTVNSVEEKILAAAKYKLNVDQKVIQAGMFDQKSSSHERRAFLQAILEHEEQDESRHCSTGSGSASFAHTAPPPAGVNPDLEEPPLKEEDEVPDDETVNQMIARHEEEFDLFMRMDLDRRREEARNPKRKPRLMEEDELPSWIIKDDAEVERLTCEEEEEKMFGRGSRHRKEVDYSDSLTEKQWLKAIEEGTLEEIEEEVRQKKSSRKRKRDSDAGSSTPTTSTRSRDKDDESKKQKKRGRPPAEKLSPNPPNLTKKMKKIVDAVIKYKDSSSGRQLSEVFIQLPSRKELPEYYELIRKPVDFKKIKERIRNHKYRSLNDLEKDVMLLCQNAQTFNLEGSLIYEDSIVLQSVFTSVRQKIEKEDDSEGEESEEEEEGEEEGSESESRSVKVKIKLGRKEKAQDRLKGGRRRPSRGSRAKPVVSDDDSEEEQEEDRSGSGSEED
In words: SMARCA4 Western blot MV4-11 degradation. The class given is cell-based. Conditions: 24 h; for Dmax: MV4-11, MV4-11 cells, read-out: SMARCA4 WB MV411 degradation 24 h: Average Dmax %; for DC50: MV4-11 cells, read-out: SMARCA4 WB MV411 degradation 24 h: Average external-Abs DC50. In a few lines: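 MV4-11 cells treated with compound for 24 h, lysed in RIPA with protease/phosphatase inhibitors, and SMARCA2 and SMARCA4 (BRG1) levels assessed by Western blot with β-actin loading control and LI-COR fluorescent read-out. Maximal degradation (Dmax %) after 24 h binned into letter codes.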

SMARCA2, sequence (P51531 whole entry): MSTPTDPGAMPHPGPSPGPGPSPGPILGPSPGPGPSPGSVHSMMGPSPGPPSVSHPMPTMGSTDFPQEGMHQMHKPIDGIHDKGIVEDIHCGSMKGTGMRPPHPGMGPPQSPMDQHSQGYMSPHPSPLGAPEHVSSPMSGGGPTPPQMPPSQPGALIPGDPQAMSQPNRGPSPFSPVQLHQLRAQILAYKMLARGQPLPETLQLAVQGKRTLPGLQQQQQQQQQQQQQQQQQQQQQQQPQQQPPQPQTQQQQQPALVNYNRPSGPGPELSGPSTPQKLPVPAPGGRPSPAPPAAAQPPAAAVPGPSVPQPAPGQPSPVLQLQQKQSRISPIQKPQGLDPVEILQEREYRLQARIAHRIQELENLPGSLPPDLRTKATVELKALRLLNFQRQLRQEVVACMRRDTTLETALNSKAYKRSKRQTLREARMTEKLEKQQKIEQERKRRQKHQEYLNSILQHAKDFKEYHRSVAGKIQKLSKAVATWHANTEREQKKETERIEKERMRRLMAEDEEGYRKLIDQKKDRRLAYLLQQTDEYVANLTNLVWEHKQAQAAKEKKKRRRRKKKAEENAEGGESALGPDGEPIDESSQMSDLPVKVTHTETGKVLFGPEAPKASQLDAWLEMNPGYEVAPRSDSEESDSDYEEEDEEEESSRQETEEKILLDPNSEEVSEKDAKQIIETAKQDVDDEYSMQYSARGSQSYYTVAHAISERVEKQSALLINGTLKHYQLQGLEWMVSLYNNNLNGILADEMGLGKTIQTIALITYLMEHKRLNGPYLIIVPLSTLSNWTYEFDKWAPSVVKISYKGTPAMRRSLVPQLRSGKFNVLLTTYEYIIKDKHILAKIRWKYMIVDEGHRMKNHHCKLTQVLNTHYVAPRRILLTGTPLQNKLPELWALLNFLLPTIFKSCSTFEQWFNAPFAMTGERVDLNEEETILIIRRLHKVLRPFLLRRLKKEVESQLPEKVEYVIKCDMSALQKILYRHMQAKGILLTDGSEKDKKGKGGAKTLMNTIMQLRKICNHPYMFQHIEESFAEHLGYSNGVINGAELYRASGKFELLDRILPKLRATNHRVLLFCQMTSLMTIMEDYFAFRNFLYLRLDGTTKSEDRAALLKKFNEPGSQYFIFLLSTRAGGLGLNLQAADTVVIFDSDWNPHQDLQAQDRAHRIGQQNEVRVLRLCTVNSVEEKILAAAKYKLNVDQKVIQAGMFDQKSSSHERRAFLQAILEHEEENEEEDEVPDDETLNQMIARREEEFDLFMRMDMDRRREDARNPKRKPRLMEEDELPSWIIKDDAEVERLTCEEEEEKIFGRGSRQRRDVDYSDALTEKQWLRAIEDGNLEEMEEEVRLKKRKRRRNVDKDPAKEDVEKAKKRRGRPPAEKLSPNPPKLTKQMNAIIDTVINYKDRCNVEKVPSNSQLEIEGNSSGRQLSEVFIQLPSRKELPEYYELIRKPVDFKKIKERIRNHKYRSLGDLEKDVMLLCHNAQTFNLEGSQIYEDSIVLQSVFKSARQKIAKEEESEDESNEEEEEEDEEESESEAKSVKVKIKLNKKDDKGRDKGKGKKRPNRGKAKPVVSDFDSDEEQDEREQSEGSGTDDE

On to `Cn1c(=O)n(C2CCC(=O)NC2=O)c2ccc([C@H]3CC[C@@H](N4CCC(c5nccc(N6C7CCC6CN(c6cc(-c8ccccc8O)nnc6N)C7)n5)CC4)CC3)cc21` (stereo partly drawn) [I-279, 3-(5-((1s,4s)-4-(4-(4-(3-(3-amino-6-(2-hydroxyphenyl)pyridazin-4-yl)-3,8-diazabicyclo[3.2.1]octan-8-yl)pyrimidin-2-yl)piperidin-1-yl)cyclohexyl)-3-methyl-2-oxo-2,3-dihydro-1H-benzo[d]imidazol-1-yl)piperidine-2,6-dion], for which, on SMARCA2, the Dmax is more than 90% and the DC50 is less than 100 nM. Also, on SMARCA4, the greatest degradation seen (Dmax) was more than 90% and the DC50 was less than 100 nM.
On to `Cc1ncsc1-c1ccc(CNC(=O)[C@@H]2C[C@@H](O)CN2C(=O)[C@@H](NC(=O)c2ccc(-c3ccc(N4CCC(Cn5cc(-c6cc(-c7ccccc7O)nnc6N)cn5)CC4)cc3)cc2)C(C)(C)C)cc1` [I-353], for which, at SMARCA2, the Dmax is less than 50% and the 50% degradation concentration (DC50) is more than 1000 nM. Further, on SMARCA4, the Dmax was in the range of 70 to 90% and the DC50 is more than 1000 nM.
For the compound `Cc1ncsc1-c1ccc(CNC(=O)[C@@H]2C[C@@H](O)CN2C(=O)[C@@H](NC(=O)COCC#Cc2cnc(N3C4CCC3CN(c3cc(-c5ccccc5O)nnc3N)C4)nc2)C(C)(C)C)cc1` [I-340], at SMARCA2, the maximal degradation (Dmax) was more than 90% and the DC50 is 100 to 500 nM. Moreover, on SMARCA4, the Dmax is more than 90% and the DC50 is less than 100 nM.
Consider `Cc1ncsc1-c1ccc(CNC(=O)[C@@H]2C[C@@H](O)CN2C(=O)[C@@H](NC(=O)[C@H]2C[C@H](N3CCC(c4cnc(N5C6CCC5CN(c5cc(-c7ccccc7O)nnc5N)C6)nc4)CC3)C2)C(C)(C)C)cc1` [I-356], for which, at SMARCA2, the Dmax fell in the range of 70 to 90% and the DC50 is 100 to 500 nM. In addition, on SMARCA4, the Dmax is more than 90% and the DC50 was less than 100 nM.
The corresponding values for `Cc1ncsc1-c1ccc(CNC(=O)[C@@H]2C[C@@H](O)CN2C(=O)[C@@H](NC(=O)C2CC3(C2)CC(N2CCC(n4cc(-c5cc(-c6ccccc6O)nnc5N)cn4)CC2)C3)C(C)(C)C)cc1` (stereo partly drawn) [I-329] are more than 90%, 100 to 500 nM, more than 90% and less than 100 nM.
The matching figures for `Cc1ncsc1-c1ccc(CNC(=O)[C@@H]2C[C@@H](O)CN2C(=O)[C@@H](NC(=O)[C@H]2CC[C@@H](N3CCC(c4cnc(N5C6CCC5CN(c5cc(-c7ccccc7O)nnc5N)C6)nc4)CC3)CC2)C(C)(C)C)cc1` [I-347]: 70 to 90%, 100 to 500 nM, 50 to 70% and more than 1000 nM.
The corresponding values for `Cc1ncsc1-c1ccc(CNC(=O)[C@@H]2C[C@@H](O)CN2C(=O)[C@@H](NC(=O)[C@H]2CC[C@@H](c3nccc(N4C5CCC4CN(c4cc(-c6ccccc6O)nnc4N)C5)n3)CC2)C(C)(C)C)cc1` [I-362] are 70 to 90%, 501 to 1000 nM, more than 90% and less than 100 nM.
In the case of `COc1ccccc1-c1cc(N2CC3CCC(C2)N3c2ncc([C@H]3CC[C@@H](CC(=O)N[C@H](C(=O)N4C[C@H](O)C[C@H]4C(=O)NCc4ccc(-c5scnc5C)cc4)C(C)(C)C)CC3)cn2)c(N)nn1` [I-331], on SMARCA2, the Dmax is more than 90% and the DC50 was in the range of 100 to 500 nM. Besides, at SMARCA4, the Dmax was more than 90% and the DC50 was less than 100 nM.
Consider `Cc1cc(-c2scnc2C)ccc1CNC(=O)[C@@H]1C[C@@H](O)CN1C(=O)[C@@H](NC(=O)CN1CCC(c2cnc(N3C4CCC3CN(c3cc(-c5ccccc5O)nnc3N)C4)nc2)CC1)C(C)(C)C` [I-521], for which, on SMARCA2, the Dmax was more than 90% and the half-maximal degradation concentration (DC50) was in the range of 100 to 500 nM. Further, on SMARCA4, the Dmax is more than 90% and the DC50 fell in the range of 100 to 500 nM.
